ChEMBL document CHEMBL5608113, “Targeting of CAF-induced therapy resistance in CRC organoid-stroma co-cultures” (2024)

Columns and labels:
Assay type in all cases: functional, Homo sapiens
Conditions in all cases: Homo sapiens, read-out: Cell Viability; for viability at 10 µM: Concentration 10 uM; for viability at 1 µM: Concentration 1 uM
Colon cancer organoid [1] = assay: Targeting of F14 CAF-induced therapy resistance in O23 CRC organoid-stroma co-culture. Cell viability is reported with Gefitinib.
Colon cancer organoid [2] = assay: Targeting of F14 CAF-induced therapy resistance in O23 CRC organoid-stroma co-culture. Cell viability is reported with SN-38.
Colon cancer organoid [3] = assay: Targeting of F14 CAF-induced therapy resistance in O14 CRC organoid-stroma co-culture. Cell viability is reported without Gefitinib.
Colon cancer organoid [4] = assay: Targeting of F14 CAF-induced therapy resistance in O14 CRC organoid-stroma co-culture. Cell viability is reported with Gefitinib.
Colon cancer organoid [5] = assay: Targeting of F14 CAF-induced therapy resistance in O23 CRC organoid-stroma co-culture. Cell viability is reported without Gefitinib.

Structure (SMILES) | viability at 10 µM (Colon cancer organoid [1]) [%] | viability at 10 µM (Colon cancer organoid [2]) [%] | viability at 10 µM (Colon cancer organoid [3]) [%] | viability at 10 µM (Colon cancer organoid [4]) [%] | viability at 10 µM (Colon cancer organoid [5]) [%] | viability at 1 µM (Colon cancer organoid [1]) [%] | viability at 1 µM (Colon cancer organoid [2]) [%] | viability at 1 µM (Colon cancer organoid [3]) [%] | viability at 1 µM (Colon cancer organoid [4]) [%] | viability at 1 µM (Colon cancer organoid [5]) [%]
CC(=O)C1=C(C)N(c2cccc(C(F)(F)F)c2)C(=O)N[C@H]1c1ccc(C#N)nc1 [BAY-677] | 51.7 | 75 | 107 | 57.5 | 93.5 |  |  |  |  | 
CC(=O)C1=C(C)N(c2cccc(C(F)(F)F)c2)C(=O)N[C@@H]1c1ccc(C#N)nc1 [BAY-678] | 61.8 | 75.6 | 103 | 41.2 | 108 |  |  |  |  | 
Cc1nc(C2CCN(C(=O)c3ccc(OC(F)(F)F)cc3N)CC2)c2ncc(N3CCN(C)CC3)cc2n1 [BAY-693] | 46.5 | 53.6 | 76.4 | 32.1 | 119 |  |  |  |  | 
O=C(O)[C@@H]1[C@@H](Cn2nnc3ccccc3c2=O)CC[C@H]1C(=O)c1ccc(OCCC2CCOCC2)cc1 [BAY-694] | 53 | 78.7 | 102 | 56 | 146 |  |  |  |  | 
O=C(NCc1ncc(C(F)(F)F)cc1Cl)c1ccc2c(c1)C1(CCS(=O)(=O)CC1)[C@H](C1CC1)N2S(=O)(=O)c1ccc(F)cc1 [BAY-784] |  |  |  |  |  | 74.1 | 127 | 129 | 55.8 | 157
O=C(NCc1ncc(C(F)(F)F)cc1Cl)c1ccc2c(c1)C1(CCS(=O)(=O)CC1)[C@@H](C1CC1)N2S(=O)(=O)c1ccc(F)cc1 [BAY-786] | 61.5 | 106 | 115 | 53 | 138 |  |  |  |  | 
Cc1cc(C)c(-n2ccn3nc(-c4cccnc4)cc23)cc1NC(=O)c1cc(C#N)cc(S(F)(F)(F)(F)F)c1 [BAY-826] |  |  |  |  |  | 58.2 | 64.2 | 145 | 58.7 | 102
Cc1c(NC(=O)c2cc(C(N)=O)nc3cc(F)ccc23)c(C(F)(F)F)nn1Cc1ccc(C#N)cc1 [BAY-876] | 15 | 39.6 | 16.3 | 5.75 | 43.8 |  |  |  |  | 
CN1CCN(c2cnc3c(C4CCN(C(=O)c5ccc(OC(F)(F)F)cc5N)CC4)ncnc3c2)CC1 [BAY-885] | 59.7 | 78 | 114 | 21.7 | 115 |  |  |  |  | 
O=C(Nc1ccc(Oc2ccc(F)cc2)cc1)N1CCc2ncccc2[C@H]1c1ccc(F)cc1 [BAY-897] |  |  |  |  |  | 47.5 | 61.9 | 80 | 32.3 | 111
O=C(Nc1cnc(Oc2ccc(F)cc2)nc1)N1CCc2ncccc2[C@@H]1c1ccc(F)cc1 [BAY-899] | 63.6 | 59.1 | 98.8 | 39.4 | 223 |  |  |  |  | 
CC1=C(C#N)C(c2ccc3c(c2)c(NC(=O)c2ccccc2C)nn3C)C(C#N)=C(C)N1 [BAY-974] | 40.1 | 57.9 | 109 | 48.3 | 103 |  |  |  |  | 
C[C@H](c1ccnc(Nc2nc3ccc(-c4cc(N(C)C)ncn4)cc3[nH]2)c1)N1CCN(C(=O)CC(F)(F)F)CC1 [BAY-985] | 84.3 | 80.5 | 163 | 77.2 | 160 |  |  |  |  | 
NS(=O)(=O)c1cc(NC(=O)Cc2ccccc2)ccc1Oc1cccc(Cl)c1 [BAY-1797] | 48.6 | 60.6 | 124 | 51.7 | 114 |  |  |  |  | 
CCc1ccccc1C(=O)Nc1n[nH]c2c(C)c(F)c(C3C(C#N)=C(C)N(C)C(C)=C3C#N)cc12 [BAY-3827] | 30.6 | 14.5 | 101 | 24.2 | 47.4 |  |  |  |  | 
Cn1cc(Cl)c2c(Oc3c(F)cc(Nc4cc(Cl)nc(N)n4)cc3F)ccnc21 [BAY-4900] | 40.3 | 54.4 | 85 | 30.9 | 107 |  |  |  |  | 
Cc1c(N2CCCC2)nc2ccc(Br)cc2c1C(=O)NC[C@H](CCC(=O)O)c1ccccc1Cl [BAY-6672] | 42.2 | 58.4 | 138 | 37.9 | 81.2 |  |  |  |  | 
O=C(O)[C@H]1[C@H](Cn2nnc3ccccc3c2=O)CC[C@@H]1C(=O)c1ccc(OCCC2CCOCC2)cc1 [BAY-7598] |  |  |  |  |  | 41.8 | 99.1 | 122 | 48.5 | 130

Structure (SMILES) | viability at 10 µM (Colon cancer organoid [1]) [%] | viability at 10 µM (Colon cancer organoid [2]) [%] | viability at 10 µM (Colon cancer organoid [3]) [%] | viability at 10 µM (Colon cancer organoid [4]) [%] | viability at 10 µM (Colon cancer organoid [5]) [%] | viability at 1 µM (Colon cancer organoid [1]) [%] | viability at 1 µM (Colon cancer organoid [2]) [%] | viability at 1 µM (Colon cancer organoid [3]) [%] | viability at 1 µM (Colon cancer organoid [4]) [%] | viability at 1 µM (Colon cancer organoid [5]) [%]
COc1cc(N[C@@H]2CCCC[C@]2(O)C(F)(F)F)ccc1F [BAY-9897] |  |  |  |  |  | 66.7 | 78.5 | 86.4 | 40.2 | 81.6
NC(=O)c1ccc2nc(-c3ccc(C4(N)CCC4)cc3)c(-c3ccccc3)n2n1 [BAY-1125976] |  |  |  |  |  | 38 | 47.7 | 152 | 52.1 | 86
CC(=O)N1CCC(c2ccc(C(=O)NC3=NCCN3)cc2C(F)(F)F)CC1 [BI 0054] | 54.5 | 74.4 | 46.7 | 17.4 | 120 |  |  |  |  | 
CN(C)C(=O)Cn1cc(-c2nc(C3(c4ccc(-c5cnc(N)nc5)cc4)CC3)no2)cn1 [BI 0153] | 48.9 | 98.3 | 110 | 82.1 | 171 |  |  |  |  | 
COc1ccc2c(O[C@@H]3C[C@H]4C(=O)N[C@]5(C(=O)O)CC5/C=C\CCCCC[C@H](NC(=O)OC5CCCC5)C(=O)N4C3)cc(-c3csc(NC(=O)C(C)C)n3)nc2c1C (stereo not given in full) [BI 1230] | 63.1 | 77.1 | 152 | 50 | 141 |  |  |  |  | 
O=C(N[C@H]1CCCCC/C=C\C2C[C@@]2(C(=O)O)NC(=O)[C@@H]2C[C@@H](Oc3ccncc3)CN2C1=O)OC1CCCC1 (stereo not given in full) [BI 1675] | 51 | 89.7 | 102 | 62 | 136 |  |  |  |  | 
CCOCCn1cc(C(=O)Nc2ccc(-n3nc(-c4cccnc4)cc3C(F)(F)F)cn2)ccc1=O [BI 1935] | 70.8 | 64.4 | 82.6 | 40.1 | 98.5 |  |  |  |  | 
C[C@H](NC(=O)c1cnc2n1[C@](C)(Cc1ccc(C#N)cc1)C(=O)N2c1cc(Cl)c(F)c(Cl)c1)C(=O)NC1(c2ccccn2)CC1 [BI 1950] | 52.2 | 85.8 | 125 | 44.4 | 104 |  |  |  |  | 
O=C(Nc1ccc(-n2nc(-c3cccnc3)cc2C(F)(F)F)cn1)c1ccc(-c2ccccc2)c(F)c1 [BI 2049] |  |  |  |  |  | 32.7 | 97.9 | 132 | 24.6 | 103
CC(C)(C#Cc1ccc(NC(=O)COc2ccccc2C(=O)c2ccccc2)c(Cl)c1)C(=O)O [BI 2439] | 98.3 | 82.7 | 159 | 36.7 | 160 |  |  |  |  | 
Cc1c(NC(=O)COc2ccc(Cl)cc2C(=O)c2cc(F)cc(C(F)(F)F)c2)ccc(C(=O)O)c1F [BI 2540] | 79.4 | 67.8 | 124 | 64.5 | 132 |  |  |  |  | 
O=C(NC[C@@H]1[C@H]2CN(C(=O)OCc3cc(C(F)(F)F)cc(C(F)(F)F)c3)C[C@@H]12)c1ccc2[nH]nnc2c1 [BI 2545] | 83.8 | 105 | 105 | 43 | 142 |  |  |  |  | 
Cc1nccc(COC(=O)N2C[C@@H]3[C@@H](CNC(=O)c4ccc5[nH]nnc5c4)[C@@H]3C2)n1 [BI 3017] | 38.3 | 76 | 7.82 | 7.21 | 161 |  |  |  |  | 
CCS(=O)(=O)c1cc2cc(C[C@@](O)(CC(C)(C)c3ccc(F)cc3C(N)=O)C(F)(F)F)[nH]c2cn1 [BI 3047] |  |  |  |  |  | 46.6 | 71 | 137 | 44.9 | 139
CCOC(=O)c1cc2cc(-c3cc(C(=O)NCc4ccc(C(=O)O)cc4)nn3C)ccc2[nH]1 [BI 4394] |  |  |  |  |  | 77.1 | 83.8 | 95.7 | 59.3 | 148
Cn1nc(C(=O)NCc2ccc(C(=O)O)cc2)cc1-c1ccc2[nH]ccc2c1 [BI 4395] | 52.8 | 77.4 | 95.3 | 62.1 | 124 |  |  |  |  | 
Cn1c(C2(NC(=O)c3ccc(NCC4CCCCC4)nc3)CCC2)nc2ccc(/C=C/C(=O)O)cc21 [BI 7656] | 77.7 | 69.9 | 101 | 45.1 | 131 |  |  |  |  | 
CS(=O)(=O)NCC[C@H](NC(=O)c1cncc2c1cnn2-c1ccc(F)cc1)c1ccnc(S(C)(=O)=O)c1 [BI 9307] |  |  |  |  |  | 116 | 70.6 | 105 | 37.4 | 114
